Reference: patent US20240216272A1, “PHARMACEUTICAL PREPARATION” (KOWA COMPANY, LTD., priority 2014, published 2024)

Tests used:
Assay type in all cases: physicochemical
[1] = Test Example 7: Preservation Test No. 1, color difference (ΔYI) at 60° C.; conditions: for ΔYI: aqueous composition of Table 7 (phosphate, pH 6.7), 60° C. for 3 months; for Evaluation (ΔYI): aqueous composition of Table 7, 60° C. for 3 months
Description: An aqueous composition of the formulation shown in Table 7 was prepared in accordance with a conventional method, and then placed in a container made of polyethylene (PE), polypropylene (PP), or polyvinyl chloride (PVC) to produce a pharmaceutical preparation. Each of the resulting pharmaceutical preparations was preserved at 60° C. for 3 months, and a color difference (ΔYI) before and after the preservation was measured using a color difference meter (spectrophotometer, CM-700d: Konica Minolta Sensing, Inc.). A ΔYI value of 5 or more was rated as “b”, and a ΔYI value of less than 5 was rated as “a”. [table]

[2] = Test Example 5: photostability in plastic container containing an ultraviolet absorber; conditions: for Analogs (%): aqueous composition 0.4 g/100 mL as free form, pH 6.0, polypropylene container containing ultraviolet absorber (transmittance 300 to 335 nm: 7.2%)
Description: Based on the results obtained in Test Examples 3 and 4, stabilization of an aqueous composition containing ripasudil was attempted by storing the aqueous composition in a container containing an ultraviolet absorber.
Specifically, an aqueous composition containing, per 100 mL, 0.4896 g of ripasudil monohydrochloride dihydrate (0.4 g, as the free form of ripasudil), 0.4 g of anhydrous sodium dihydrogen phosphate, 2.136 g of glycerin, 0.002 g of benzalkonium chloride, an appropriate amount of sodium hydroxide (pH 6.0), and sterile purified water (balance) was prepared. This aqueous composition was then stored in the below-described container for eye drops made of polypropylene, which contained an ultraviolet absorber. The aqueous composition was then irradiated with 4000 lux of light to give a cumulative radiation dose of 1,200,000 lux.hr, at 25° C., with a D65 fluorescent lamp as the light source, using a photostability tester (LT-120A: Nagano Science Corporation).
The amount of ripasudil analogs was evaluated for the sample before and after exposure to light, as in Test Example 1.
A container for eye drops made of polypropylene into which a benzotriazole-based ultraviolet absorber was mixed was used.

[3] = Test Example 6: photostability in container with shrinkable film containing an ultraviolet scattering agent; conditions: for Analogs (%): aqueous composition 0.4 g/100 mL as free form, pH 6.0, polypropylene container wound with shrinkable film containing titanium oxide (transmittance 300 to 335 nm: 0.3%)
Description: Stabilization of the aqueous composition containing ripasudil was attempted by storing the aqueous composition in a container containing an ultraviolet scattering agent, as in Test Example 5. Specifically, the test was performed as in Test Example 5, except that the below-described container including a shrinkable film containing an ultraviolet scattering agent was used instead of the container containing an ultraviolet absorber, and a white fluorescent lamp (one used in a hospital dispensary and the like) was used as the light source instead of the D65 fluorescent lamp. A white shrinkable film (heat-shrinkable film) (Iwata Label Co., Ltd.) into which 40 to 45 mass % of titanium oxide was mixed as an ultraviolet scattering agent was wound around a side surface of a general container for eye drops made of polypropylene not containing an ultraviolet absorber, an ultraviolet scattering agent, or the like, in accordance with a conventional method, and the resulting container was used. […] Since the shrinkable film was not transparent, the contents were not visible through the side surface of the container in this state (for example, the average value of transmittance of light in the visible light region (450 to 750 nm) was 1.1%). Thus, slits with about a width of 5 mm were provided in the lower half of the side surface of the container to make the amount of the contents visible (this portion was not able to block the rays). The contents were visible through the bottom surface of the container, since the shrinkable film was not wound around the bottom surface.

[4] = Test Example 3: wavelengths of rays causing degradation of ripasudil in an aqueous composition No. 1; conditions: for Analogs (%): about 15 W·h/m^2, 25° C.; for increase in the amount of analogs: aqueous composition, in words
Description: In the following test examples, ripasudil monohydrochloride dihydrate can be produced in accordance with the method described in WO2006/057397, for example. Moreover, in the following test examples, measurement of ripasudil and its analogs using HPLC was performed using an ODS column as the column, 0.01 mol/L phosphate buffer and acetonitrile as the mobile phase, and an ultraviolet absorptiometer (wavelength: 280 nm) as the detector. The wavelengths of rays causing the photodegradation of ripasudil in the aqueous composition examined in Test Example 2 were identified by examining the presence or absence of degradation products formed by exposure to light, by irradiation of rays with a specific range of wavelengths. Specifically, an aqueous composition containing, per 100 mL, 0.0612 g of ripasudil monohydrochloride dihydrate (0.05 g as the free form of ripasudil), 1.19 g of boric acid, 0.42 g of potassium chloride, 0.002 g of benzalkonium chloride, an appropriate amount of sodium hydroxide (pH 6.7), and sterile purified water (balance) was prepared, and this aqueous composition was stored in a transparent container made of polypropylene. The aqueous composition was then irradiated with rays with wavelengths in the range of approximately 270 to 335 nm, 320 to 395 nm, 370 to 435 nm, 430 to 470 nm, 470 to 530 nm, 525 to 575 nm, 570 to 630 nm, 625 to 675 nm, or 660 to 740 nm, at 25° C., using a spectroradiometer equipped with optical filters (spectral unit: HSU-100S, light source: MAX-302FBD; both from Asahi Spectra Co., Ltd.). Note that the rays of wavelengths in each of the ranges were emitted at a radiation energy of about 15 w·h/m^2. To examine the presence or absence of photodegradation products of ripasudil, the presence or absence of an increase in the amount of ripasudil analogs was evaluated, using the same method as that of Test Example 1.

ΔYI ([1]; container PE): 4.07
ΔYI ([1]; container PP): 4.42
ΔYI ([1]; container PVC): 7.45
Analogs (%) ([2]; D65 lamp, 25° C., 1,200,000 lux·hr): 0.55%
Analogs (%) ([2]; before exposure to light): 0.11%
photostability of ripasudil in the aqueous composition ([2]; container with average transmittance at 300 to 335 nm of 7.2%, in words): improved
Analogs (%) ([3]; before exposure to light): 0.13%
Analogs (%) ([3]; white fluorescent lamp, 1,200,000 lux·hr): 0.28%
photostability of ripasudil in the aqueous composition ([3]; container with average transmittance at 300 to 335 nm of 0.3%, in words): improved
Analogs (%) ([4]; aqueous composition 0.05 g/100 mL as free form, boric acid, pH 6.7, transparent polypropylene container, emitted wavelengths 270 to 335 nm): 4.22%
Analogs (%) ([4]; same composition, emitted wavelengths 320 to 395 nm): 1.23%
Analogs (%) ([4]; same composition, emitted wavelengths 370 to 435 nm): 0.05%
Analogs (%) ([4]; same composition, emitted wavelengths 430 to 470 nm): 0.05%
Analogs (%) ([4]; same composition, emitted wavelengths 470 to 530 nm): 0.05%
Analogs (%) ([4]; same composition, emitted wavelengths 525 to 575 nm): 0.05%
Analogs (%) ([4]; same composition, emitted wavelengths 570 to 630 nm): 0.05%
Analogs (%) ([4]; same composition, emitted wavelengths 625 to 675 nm): 0.05%
Analogs (%) ([4]; same composition, emitted wavelengths 660 to 740 nm): 0.05%
Structure (SMILES): C[C@H]1CNCCCN1S(=O)(=O)c1cccc2cncc(F)c12 [ripasudil, 4-fluoro-5-[[(2S)-2-methyl-1,4-diazepan-1-yl]sulfonyl]isoquinoline]
Evaluation (ΔYI) ([1]; container PE): a (a ΔYI value of less than 5 was rated as “a”)
Evaluation (ΔYI) ([1]; container PP): a (a ΔYI value of less than 5 was rated as “a”)
Evaluation (ΔYI) ([1]; container PVC): b (A ΔYI value of 5 or more was rated as “b”)
increase in the amount of analogs ([4]; rays with wavelengths of 370 nm or more): an increase in the amount of analogs was not observed
increase in the amount of analogs ([4]; shorter wavelengths, particularly 270 to 335 nm): a significant increase in the amount of analogs was observed
